What was measured:
[1] = biological target: Vascular endothelial growth factor receptor 2 (Homo sapiens, UniProt P35968); test: Inhibition of human N-terminal GST tagged VEGFR-2 expressed in baculovirus infected Sf9 cells using poly (Glu,Tyr) 4:1 as substrate in presence of ATP by Kinase-Glo luminescence assay
CCRF-CEM = test: Growth inhibition of human CCRF-CEM cells at 10 uM incubated for 48 hrs by sulforhodamine B assay relative to control; format: functional; details: read-out: GI
K562 = test: Growth inhibition of human K562 cells at 10 uM incubated for 48 hrs by sulforhodamine B assay relative to control; format: functional; details: K562, 48 h, read-out: GI
RPMI-8226 = test: Growth inhibition of human RPMI8226 cells at 10 uM incubated for 48 hrs by sulforhodamine B assay relative to control; format: functional; details: RPMI-8226, 48 h, read-out: GI
EKVX = test: Growth inhibition of human EKVX cells at 10 uM incubated for 48 hrs by sulforhodamine B assay relative to control; format: functional; details: read-out: GI
HOP-62 = test: Growth inhibition of human HOP62 cells at 10 uM incubated for 48 hrs by sulforhodamine B assay relative to control; format: functional; details: HOP-62, 48 h, read-out: GI
NCI-H226 = test: Growth inhibition of human NCI-H226 cells at 10 uM incubated for 48 hrs by sulforhodamine B assay relative to control; format: functional; details: NCI-H226, 48 h, read-out: GI
NCI-H23 = test: Growth inhibition of human NCI-H23 cells at 10 uM incubated for 48 hrs by sulforhodamine B assay relative to control; format: functional; details: NCI-H23, 48 h, read-out: GI
NCI-H522 = test: Growth inhibition of human NCI-H522 cells at 10 uM incubated for 48 hrs by sulforhodamine B assay relative to control; format: functional; details: NCI-H522, 48 h, read-out: GI
SF-268 = test: Growth inhibition of human SF268 cells at 10 uM incubated for 48 hrs by sulforhodamine B assay relative to control; format: functional; details: SF-268, 48 h, read-out: GI
SF-539 = test: Growth inhibition of human SF539 cells at 10 uM incubated for 48 hrs by sulforhodamine B assay relative to control; format: functional; details: SF-539, 48 h, read-out: GI
SNB-19 = test: Growth inhibition of human SNB19 cells at 10 uM incubated for 48 hrs by sulforhodamine B assay relative to control; format: functional; details: SNB-19, 48 h, read-out: GI
SNB-75 = test: Growth inhibition of human SNB75 cells at 10 uM incubated for 48 hrs by sulforhodamine B assay relative to control; format: functional; details: SNB-75, 48 h, read-out: GI
UACC-62 = test: Growth inhibition of human UACC62 cells at 10 uM incubated for 48 hrs by sulforhodamine B assay relative to control; format: functional; details: UACC-62, 48 h, read-out: GI
IGROV-1 = test: Growth inhibition of human IGROV1 cells at 10 uM incubated for 48 hrs by sulforhodamine B assay relative to control; format: functional; details: IGROV-1, 48 h, read-out: GI
OVCAR-8 = test: Growth inhibition of human OVCAR8 cells at 10 uM incubated for 48 hrs by sulforhodamine B assay relative to control; format: functional; details: OVCAR-8, 48 h, read-out: GI
A498 = test: Growth inhibition of human A498 cells at 10 uM incubated for 48 hrs by sulforhodamine B assay relative to control; format: functional; details: A498, 48 h, read-out: GI
ACHN = test: Growth inhibition of human ACHN cells at 10 uM incubated for 48 hrs by sulforhodamine B assay relative to control; format: functional; details: read-out: GI
CAKI-1 = test: Growth inhibition of human Caki1 cells at 10 uM incubated for 48 hrs by sulforhodamine B assay relative to control; format: functional; details: CAKI-1, 48 h, read-out: GI
UO-31 = test: Growth inhibition of human UO31 cells at 10 uM incubated for 48 hrs by sulforhodamine B assay relative to control; format: functional; details: UO-31, 48 h, read-out: GI
PC-3 = test: Growth inhibition of human PC3 cells at 10 uM incubated for 48 hrs by sulforhodamine B assay relative to control; format: functional; details: PC-3, 48 h, read-out: GI
MDA-MB-231 = test: Growth inhibition of human MDA-MB-231 cells at 10 uM incubated for 48 hrs by sulforhodamine B assay relative to control; format: functional; details: MDA-MB-231, 48 h, read-out: GI
MDA-MB-468 = test: Growth inhibition of human MDA-MB-468 cells at 10 uM incubated for 48 hrs by sulforhodamine B assay relative to control; format: functional; details: MDA-MB-468, 48 h, read-out: GI
MCF7 [2] = test: Cytotoxicity against human MCF7 cells expressing VEGFR2 and wild type BRAF measured after 48 hrs by sulforhodamine B assay; format: functional, cell-based; details: MCF7, 48 h
[3] = biological target: Serine/threonine-protein kinase B-raf (Homo sapiens, UniProt P15056); test: Inhibition of human wild type BRAF by Kinase-Glo luminescence assay
Serine/threonine-protein kinase B-raf, sequence (P15056 whole entry): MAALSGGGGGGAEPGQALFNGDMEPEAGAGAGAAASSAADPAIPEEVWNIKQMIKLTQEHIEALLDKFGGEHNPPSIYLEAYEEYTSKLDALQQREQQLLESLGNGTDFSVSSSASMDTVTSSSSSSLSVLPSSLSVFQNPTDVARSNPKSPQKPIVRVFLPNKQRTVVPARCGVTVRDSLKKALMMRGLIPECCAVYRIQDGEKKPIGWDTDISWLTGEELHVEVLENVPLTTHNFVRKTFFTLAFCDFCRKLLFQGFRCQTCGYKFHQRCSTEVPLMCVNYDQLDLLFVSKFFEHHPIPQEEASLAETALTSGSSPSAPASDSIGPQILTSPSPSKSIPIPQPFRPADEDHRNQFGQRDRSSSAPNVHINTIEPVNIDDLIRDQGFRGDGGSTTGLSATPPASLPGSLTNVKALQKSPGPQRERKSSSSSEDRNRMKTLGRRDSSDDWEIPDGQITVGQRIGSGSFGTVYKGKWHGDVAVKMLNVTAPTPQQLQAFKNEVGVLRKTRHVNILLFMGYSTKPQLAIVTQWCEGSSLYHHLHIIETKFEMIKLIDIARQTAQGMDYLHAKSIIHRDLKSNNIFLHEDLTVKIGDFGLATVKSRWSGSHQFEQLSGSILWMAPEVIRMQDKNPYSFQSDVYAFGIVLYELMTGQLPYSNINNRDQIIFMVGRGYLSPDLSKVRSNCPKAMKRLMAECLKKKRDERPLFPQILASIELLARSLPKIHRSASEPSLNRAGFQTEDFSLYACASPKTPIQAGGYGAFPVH

MOLT-4 = test: Growth inhibition of human MOLT4 cells at 10 uM incubated for 48 hrs by sulforhodamine B assay relative to control; format: functional; details: MOLT-4, 48 h, read-out: GI
A549 = test: Growth inhibition of human A549/ATCC cells at 10 uM incubated for 48 hrs by sulforhodamine B assay relative to control; format: functional; details: A549, 48 h, read-out: GI
HCT-15 = test: Growth inhibition of human HCT15 cells at 10 uM incubated for 48 hrs by sulforhodamine B assay relative to control; format: functional; details: HCT-15, 48 h, read-out: GI
KM12 = test: Growth inhibition of human KM12 cells at 10 uM incubated for 48 hrs by sulforhodamine B assay relative to control; format: functional; details: KM12, 48 h, read-out: GI
SF-295 = test: Growth inhibition of human SF295 cells at 10 uM incubated for 48 hrs by sulforhodamine B assay relative to control; format: functional; details: SF-295, 48 h, read-out: GI
SK-MEL-5 = test: Growth inhibition of human SK-MEL-5 cells at 10 uM incubated for 48 hrs by sulforhodamine B assay relative to control; format: functional; details: SK-MEL-5, 48 h, read-out: GI
OVCAR-4 = test: Growth inhibition of human OVCAR4 cells at 10 uM incubated for 48 hrs by sulforhodamine B assay relative to control; format: functional; details: OVCAR-4, 48 h, read-out: GI
NCI/ADR-RES = test: Growth inhibition of human NCI/ADR-RES cells at 10 uM incubated for 48 hrs by sulforhodamine B assay relative to control; format: functional; details: read-out: GI
MCF7 [4] = test: Growth inhibition of human MCF7 cells at 10 uM incubated for 48 hrs by sulforhodamine B assay relative to control; format: functional; details: MCF7, 48 h, read-out: GI
T47D [5] = test: Growth inhibition of human T47D cells at 10 uM incubated for 48 hrs by sulforhodamine B assay relative to control; format: functional; details: read-out: GI
T47D [6] = test: Cytotoxicity against human T47D cells expressing wild type BRAF measured after 48 hrs by sulforhodamine B assay; format: functional, cell-based
HCT-116 = test: Growth inhibition of human HCT116 cells at 10 uM incubated for 48 hrs by sulforhodamine B assay relative to control; format: functional; details: HCT-116, 48 h, read-out: GI
LOX IMVI = test: Growth inhibition of human LOXIMVI cells at 10 uM incubated for 48 hrs by sulforhodamine B assay relative to control; format: functional; details: read-out: GI
RXF 393 = test: Growth inhibition of human RXF393 cells at 10 uM incubated for 48 hrs by sulforhodamine B assay relative to control; format: functional; details: RXF 393, 48 h, read-out: GI
MCF7 [7] = test: Inhibition of VEGFR2 level in human MCF7 cells at 10 uM measured after 48 hrs by ELISA relative to control; format: functional; details: MCF7, 48 h

Vascular endothelial growth factor receptor 2, sequence (P35968 whole entry): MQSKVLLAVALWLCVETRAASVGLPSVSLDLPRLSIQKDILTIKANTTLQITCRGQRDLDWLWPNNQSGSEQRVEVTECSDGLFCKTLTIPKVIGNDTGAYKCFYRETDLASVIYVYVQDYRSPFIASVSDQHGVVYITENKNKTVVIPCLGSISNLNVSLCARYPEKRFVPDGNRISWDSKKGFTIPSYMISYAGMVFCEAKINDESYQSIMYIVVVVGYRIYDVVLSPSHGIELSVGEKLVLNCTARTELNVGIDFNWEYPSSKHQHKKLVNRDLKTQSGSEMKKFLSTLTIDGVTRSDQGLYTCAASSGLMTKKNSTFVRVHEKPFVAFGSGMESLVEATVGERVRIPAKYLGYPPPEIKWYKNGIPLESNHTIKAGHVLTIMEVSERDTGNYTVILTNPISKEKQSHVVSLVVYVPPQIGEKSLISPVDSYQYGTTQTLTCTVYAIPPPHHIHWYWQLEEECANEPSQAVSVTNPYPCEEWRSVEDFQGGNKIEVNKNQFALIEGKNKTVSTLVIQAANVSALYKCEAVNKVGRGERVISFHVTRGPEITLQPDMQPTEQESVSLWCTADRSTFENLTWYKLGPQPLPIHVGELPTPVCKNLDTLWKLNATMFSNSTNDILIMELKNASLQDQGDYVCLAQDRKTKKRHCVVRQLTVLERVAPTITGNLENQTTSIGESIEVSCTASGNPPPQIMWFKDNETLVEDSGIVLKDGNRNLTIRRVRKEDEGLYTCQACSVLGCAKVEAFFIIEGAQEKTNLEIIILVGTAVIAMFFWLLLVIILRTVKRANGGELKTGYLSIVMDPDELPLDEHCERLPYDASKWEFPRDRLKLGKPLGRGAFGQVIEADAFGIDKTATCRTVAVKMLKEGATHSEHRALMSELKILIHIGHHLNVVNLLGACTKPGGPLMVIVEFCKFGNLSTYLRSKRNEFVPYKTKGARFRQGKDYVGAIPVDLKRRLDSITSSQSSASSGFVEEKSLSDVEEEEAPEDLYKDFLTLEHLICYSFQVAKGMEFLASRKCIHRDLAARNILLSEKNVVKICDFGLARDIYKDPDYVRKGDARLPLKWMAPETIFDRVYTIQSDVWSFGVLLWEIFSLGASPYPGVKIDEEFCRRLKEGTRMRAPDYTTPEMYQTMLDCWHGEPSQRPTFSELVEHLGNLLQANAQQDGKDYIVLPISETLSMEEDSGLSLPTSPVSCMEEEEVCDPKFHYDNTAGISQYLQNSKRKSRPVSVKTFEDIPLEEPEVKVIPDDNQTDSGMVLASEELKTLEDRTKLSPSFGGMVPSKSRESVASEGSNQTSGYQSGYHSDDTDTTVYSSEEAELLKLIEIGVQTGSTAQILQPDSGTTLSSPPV

| Structure (SMILES) | IC50 [1] | inhibition of growth at 10 µM (CCRF-CEM) | inhibition of growth at 10 µM (K562) | inhibition of growth at 10 µM (RPMI-8226) | inhibition of growth at 10 µM (EKVX) | inhibition of growth at 10 µM (HOP-62) | inhibition of growth at 10 µM (NCI-H226) | inhibition of growth at 10 µM (NCI-H23) | inhibition of growth at 10 µM (NCI-H522) | inhibition of growth at 10 µM (UACC-62) | inhibition of growth at 10 µM (IGROV-1) | inhibition of growth at 10 µM (OVCAR-8) | inhibition of growth at 10 µM (A498) | inhibition of growth at 10 µM (ACHN) | inhibition of growth at 10 µM (CAKI-1) | inhibition of growth at 10 µM (UO-31) | inhibition of growth at 10 µM (PC-3) | inhibition of growth at 10 µM (MDA-MB-231) | inhibition of growth at 10 µM (MDA-MB-468) | IC50 (MCF7 [2]) | further results |
| --- | --- | --- | --- | --- | --- | --- | --- | --- | --- | --- | --- | --- | --- | --- | --- | --- | --- | --- | --- | --- | --- |
| O=C(CSc1nccc(Nc2ccc(N3CCOCC3)cc2)n1)c1ccc(Cl)cc1 | 1900 nM | 13% | 10% | 10% | 10% | 37% | 13% | 19% | 22% | 10% | 17% | 17% | 13% | 10% | 23% | 26% | 12% | 10% | 19% | 73.3 µM | inhibition of growth at 10 µM (SF-268): 15%; inhibition of growth at 10 µM (SF-539): 15%; inhibition of growth at 10 µM (SNB-19): 19%; inhibition of growth at 10 µM (SNB-75): 36% |
| CC(=O)c1ccc(Nc2ccnc(SCC(=O)c3ccc(Cl)cc3)n2)cc1 | 220 nM | 29% | 19% | 46% | 10% | 14% | 21% | 13% | 29% | 34% |  | 29% | 19% | 11% | 21% | 33% | 30% |  | 27% | 55.2 µM | IC50 [3]: 640 nM; inhibition of growth at 10 µM (MOLT-4): 33%; inhibition of growth at 10 µM (A549): 20%; inhibition of growth at 10 µM (HCT-15): 14%; inhibition of growth at 10 µM (KM12): 11%; inhibition of growth at 10 µM (SF-295): 14%; inhibition of growth at 10 µM (SK-MEL-5): 65%; inhibition of growth at 10 µM (OVCAR-4): 18%; inhibition of growth at 10 µM (NCI/ADR-RES): 46%; inhibition of growth at 10 µM (MCF7 [4]): 19%; inhibition of growth at 10 µM (T47D [5]): 71%; IC50 (T47D [6]): 14.5 µM |
| COc1ccc(C(=O)CSc2nccc(Nc3ccc(N4CCOCC4)cc3)n2)cc1 | 290 nM | 21% | 21% | 45% |  |  | 13% | 15% | 34% | 30% | 12% | 24% |  | 11% | 16% | 35% | 16% | 11% | 13% | 23 µM | IC50 [3]: 440 nM; inhibition of growth at 10 µM (MOLT-4): 34%; inhibition of growth at 10 µM (HCT-116): 18%; inhibition of growth at 10 µM (LOX IMVI): 11%; inhibition of growth at 10 µM (SK-MEL-5): 53%; inhibition of growth at 10 µM (OVCAR-4): 15%; inhibition of growth at 10 µM (NCI/ADR-RES): 24%; inhibition of growth at 10 µM (RXF 393): 10%; inhibition of growth at 10 µM (MCF7 [4]): 17%; inhibition of growth at 10 µM (T47D [5]): 67%; IC50 (T47D [6]): 4.36 µM; inhibition at 10 µM (MCF7 [7]): 52% |

— ChEMBL document CHEMBL4396916, “Novel potent substituted 4-amino-2-thiopyrimidines as dual VEGFR-2 and BRAF kinase inhibitors” (Eur J Med Chem, 2019)
